Measurements published in PMC9571063 (Molecules, 2022).

Assays:
Experiment in all cases: KINOMEscan
Assay type in all cases: binding
Settings in all cases: read-out: Percent Control
ULK3 = molecular target: T1, ULK3 (Homo sapiens, UniProt Q6PHR2)
T1 construct: purchased Eurofins DiscoverX KINOMEscan (scanMAX 468)

STK33 = molecular target: T2, STK33 (Homo sapiens, UniProt Q9BYT3)
T2 construct: purchased Eurofins DiscoverX KINOMEscan (scanMAX 468)

[1] = molecular target: T3, ABL1(F317I)-nonphosphorylated (Homo sapiens, UniProt P00519, F317I)
T3 construct: purchased Eurofins DiscoverX KINOMEscan (scanMAX 468)
T3 sequence (P00519 whole entry F317I): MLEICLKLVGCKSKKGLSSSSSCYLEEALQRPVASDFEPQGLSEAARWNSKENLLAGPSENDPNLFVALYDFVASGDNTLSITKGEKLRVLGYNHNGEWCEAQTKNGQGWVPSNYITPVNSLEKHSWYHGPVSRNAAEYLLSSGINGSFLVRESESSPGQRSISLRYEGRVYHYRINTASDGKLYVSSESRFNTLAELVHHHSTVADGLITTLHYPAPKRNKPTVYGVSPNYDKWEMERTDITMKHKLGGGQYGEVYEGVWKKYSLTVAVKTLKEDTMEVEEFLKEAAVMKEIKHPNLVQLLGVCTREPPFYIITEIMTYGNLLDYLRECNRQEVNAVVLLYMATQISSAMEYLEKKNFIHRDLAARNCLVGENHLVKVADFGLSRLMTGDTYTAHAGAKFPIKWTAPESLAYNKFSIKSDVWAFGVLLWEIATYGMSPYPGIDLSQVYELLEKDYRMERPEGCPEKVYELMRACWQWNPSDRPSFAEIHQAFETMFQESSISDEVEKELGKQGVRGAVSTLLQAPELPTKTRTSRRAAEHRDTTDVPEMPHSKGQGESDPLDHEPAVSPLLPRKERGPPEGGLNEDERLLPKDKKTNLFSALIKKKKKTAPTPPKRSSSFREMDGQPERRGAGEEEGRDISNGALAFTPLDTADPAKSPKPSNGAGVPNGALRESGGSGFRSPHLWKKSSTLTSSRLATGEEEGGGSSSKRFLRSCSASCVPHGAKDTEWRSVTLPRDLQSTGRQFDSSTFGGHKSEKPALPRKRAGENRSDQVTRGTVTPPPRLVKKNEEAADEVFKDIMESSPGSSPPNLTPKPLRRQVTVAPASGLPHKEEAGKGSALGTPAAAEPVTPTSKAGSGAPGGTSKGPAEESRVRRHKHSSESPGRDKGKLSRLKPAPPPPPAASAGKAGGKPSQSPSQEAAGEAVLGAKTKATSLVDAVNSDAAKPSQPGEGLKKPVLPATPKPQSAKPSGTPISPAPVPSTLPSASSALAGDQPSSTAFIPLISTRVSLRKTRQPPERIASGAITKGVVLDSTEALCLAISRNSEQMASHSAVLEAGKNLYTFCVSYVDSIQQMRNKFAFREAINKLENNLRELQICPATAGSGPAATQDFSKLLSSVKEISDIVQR

ABL2 = molecular target: T4, ABL2 (Homo sapiens, UniProt P42684)
T4 construct: purchased Eurofins DiscoverX KINOMEscan (scanMAX 468)
T4 sequence (P42684 whole entry): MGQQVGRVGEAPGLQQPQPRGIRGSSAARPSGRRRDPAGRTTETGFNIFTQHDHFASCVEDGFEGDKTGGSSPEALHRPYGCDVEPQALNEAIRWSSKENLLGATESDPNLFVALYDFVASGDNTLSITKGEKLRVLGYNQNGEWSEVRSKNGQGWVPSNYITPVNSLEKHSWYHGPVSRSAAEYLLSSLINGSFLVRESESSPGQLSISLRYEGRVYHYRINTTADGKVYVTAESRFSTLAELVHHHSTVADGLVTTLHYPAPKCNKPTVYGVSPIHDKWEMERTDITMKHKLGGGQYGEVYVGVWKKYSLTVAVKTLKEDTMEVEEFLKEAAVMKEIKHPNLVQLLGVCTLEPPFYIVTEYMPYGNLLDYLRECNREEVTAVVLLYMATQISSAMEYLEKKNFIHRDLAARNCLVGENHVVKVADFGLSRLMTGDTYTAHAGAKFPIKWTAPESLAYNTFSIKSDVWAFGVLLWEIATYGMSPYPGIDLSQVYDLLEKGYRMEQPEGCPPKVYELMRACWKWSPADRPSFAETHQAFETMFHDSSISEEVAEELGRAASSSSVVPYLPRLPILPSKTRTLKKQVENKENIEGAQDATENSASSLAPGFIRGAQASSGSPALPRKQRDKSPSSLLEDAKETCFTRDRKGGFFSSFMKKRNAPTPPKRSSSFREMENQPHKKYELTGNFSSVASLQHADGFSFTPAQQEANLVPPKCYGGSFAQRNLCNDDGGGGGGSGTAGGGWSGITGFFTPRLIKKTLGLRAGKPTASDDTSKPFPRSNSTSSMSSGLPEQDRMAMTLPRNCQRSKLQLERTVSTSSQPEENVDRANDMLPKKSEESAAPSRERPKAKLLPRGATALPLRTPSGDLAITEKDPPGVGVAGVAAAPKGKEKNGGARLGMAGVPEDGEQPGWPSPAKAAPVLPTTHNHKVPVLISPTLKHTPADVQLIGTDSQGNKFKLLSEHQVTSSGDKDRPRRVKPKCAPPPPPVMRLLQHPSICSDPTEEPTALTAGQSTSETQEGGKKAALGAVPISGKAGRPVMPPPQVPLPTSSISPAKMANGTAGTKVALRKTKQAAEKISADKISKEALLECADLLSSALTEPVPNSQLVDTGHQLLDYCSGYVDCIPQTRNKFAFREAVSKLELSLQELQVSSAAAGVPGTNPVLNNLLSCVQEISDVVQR

Measured: remaining binding at 1 µM

T2 sequence (Q9BYT3 whole entry): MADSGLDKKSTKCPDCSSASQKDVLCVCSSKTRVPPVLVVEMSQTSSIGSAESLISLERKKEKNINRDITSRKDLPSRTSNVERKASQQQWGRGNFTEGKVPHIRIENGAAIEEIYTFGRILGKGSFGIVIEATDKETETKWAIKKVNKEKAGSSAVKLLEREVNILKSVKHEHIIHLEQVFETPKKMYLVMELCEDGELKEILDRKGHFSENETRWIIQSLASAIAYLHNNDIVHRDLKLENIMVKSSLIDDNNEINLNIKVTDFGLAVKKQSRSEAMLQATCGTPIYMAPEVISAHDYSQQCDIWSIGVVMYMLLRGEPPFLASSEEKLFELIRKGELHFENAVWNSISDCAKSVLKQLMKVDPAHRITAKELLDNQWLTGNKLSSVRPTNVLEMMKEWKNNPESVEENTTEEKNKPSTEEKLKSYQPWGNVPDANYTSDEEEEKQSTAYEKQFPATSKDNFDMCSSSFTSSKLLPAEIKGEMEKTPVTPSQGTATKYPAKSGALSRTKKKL
T1 sequence (Q6PHR2 whole entry): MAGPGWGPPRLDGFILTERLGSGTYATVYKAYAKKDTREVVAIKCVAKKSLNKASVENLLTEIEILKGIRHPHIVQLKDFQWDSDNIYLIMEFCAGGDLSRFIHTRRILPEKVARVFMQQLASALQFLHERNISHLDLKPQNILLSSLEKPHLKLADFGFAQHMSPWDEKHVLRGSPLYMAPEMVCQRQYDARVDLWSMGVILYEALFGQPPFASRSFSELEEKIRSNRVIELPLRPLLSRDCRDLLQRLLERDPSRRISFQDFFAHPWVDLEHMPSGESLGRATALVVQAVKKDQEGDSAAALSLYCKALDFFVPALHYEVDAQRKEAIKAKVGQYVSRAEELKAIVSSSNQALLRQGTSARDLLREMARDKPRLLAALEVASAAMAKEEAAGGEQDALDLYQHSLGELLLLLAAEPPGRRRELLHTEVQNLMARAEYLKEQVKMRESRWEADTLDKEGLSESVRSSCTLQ

Cc1ccc(-n2cc(COc3cccc4cnc(Nc5cccc(Cl)c5)nc34)nn2)c([N+](=O)[O-])c1 [DB18]
100%: all assays above
